Measurements published in patent US12097215B2, “Antibacterial composition and its use in treating bacterial infections” (Vector Vitale IP LLC, priority 2017, dated 2024).
Marks after values point to notes of the source that are not given here.

Legend:
[1] = system: P. aeruginosa ATCC 27853; assay: MBC by plating tube contents on Mueller-Hinton medium; format: cell-based
Method: (§1) To evaluate the bactericidal action of the antibacterial composition based on light isotope ^64Zne the minimum bactericidal concentration (MBC) was determined by plating out 0.1 ml of the contents of each tube containing the antibacterial composition on Mueller-Hinton medium. The incubation was at 37° C. for 24 h.
(§2) The MBC of the test samples was determined as the lowest concentration at which there was no growth on Mueller-Hinton agar medium.

[2] = system: E. coli ATCC 25922; assay: as above; format: cell-based
Method: as §1, §2

[3] = system: S. aureus ATCC 25923; assay: as above; format: cell-based
Method: as §1, §2

[4] = system: P. aeruginosa ATCC 27853; assay: MIC by serial dilutions in broth (visible growth)
Method: (§3) The minimum inhibitory concentration (MIC) and minimum bactericidal concentration (MBC) of the antibacterial composition enriched for the light isotope zinc ^64Zne was evaluated in the experiment. […] S. aureus ATCC 25923, E. coli ATCC 25922 and P. aeruginosa ATCC 27853 were used as test cultures.
(§4) The studies were carried out using the method of serial dilutions in broth. To determine sensitivity of microorganisms to the antibacterial composition, 0.5 ml of broth was placed into each tube. The number of tubes was determined based on the desired number of dilutions and was increased by one for the “negative” control (no test composition). Series of two-fold serial dilutions of the test variants of the antibacterial composition were used and concentrations ranging from 450 mcg ^64Zne/ml to 0.000107 mcg ^64Zne/ml were obtained.
(§5) Reference test strains of S. aureus ATCC 25923, E. coli ATCC 25922 and P. aeruginosa ATCC 27853 were incubated in Mueller-Hinton liquid broth at 37° C. for 24 hours. Standard bacterial suspension equivalent to 0.5 McFarland standard diluted 100-fold with the broth was used for the inoculation of the tubes after which the concentration of microorganism in it was approximately 10^6 CFU/ml.
(§6) 0.5 ml of inoculum was added to each tube containing 0.5 ml of the appropriate dilution of a solution of the ^64Zn-enriched salt of interest. […] The final concentration of the microorganism in each tube was approximately 5×10^5 CFU/ml.
(§7) The tubes were incubated at 35° C. in air for 16-20 or 20-24 hours (depending on the bacterial strain).
(§8) To determine the presence of microorganism growth the test tubes with inoculum were viewed under transmitted light. Transmitted light was measured by spectrophotometry. The growth of culture in the presence of antibacterial compositions based on ^64Zne was compared with the reference test tube (“negative” control), containing the original inoculum and stored in the refrigerator. The MIC was determined as the lowest concentration of ^64Zne that inhibits visible growth of the microorganism. Both gram-positive (S. aureus) and gram-negative bacteria (P. aeruginosa, E. coli) were used in the experiments described below.
(§9) That is, ^64Zne in the form of a salt was compared with a composition that contains zinc with a natural distribution of isotopes. […] Relevant samples containing salt of natural zinc with EDDA and natural zinc sulfate were used for the comparison.
(§10) The following commercial antibacterial medications were used for the study: azithromycin and ceftriaxone and norfloxacin. The initial concentration of 3000 mcg/ml was used for the samples of all the above compounds. […] Serial dilutions of the above antibacterial compounds were also prepared in the same way as for the antibacterial composition of the invention. The same pathogenic strains of S. aureus ATCC 25923, E. coli ATCC 25922, P. aeruginosa ATCC 27853 were used for the study.

[5] = system: S. aureus ATCC 25923; assay: MIC by serial dilutions in broth (visible growth); format: cell-based;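 also: broth tubes inoculated at about 5×10^5 CFU/ml, incubated 16-24 h at 35 °C in air, growth judged by transmitted light against an unexposed refrigerated inoculum tube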
Method: as §3, §4, §5, §6, §7, §8, §9, §10

[6] = system: E. coli ATCC 25922; assay: MIC by serial dilutions in broth (visible growth); format: cell-based;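 also: broth tubes inoculated to about 5×10^5 CFU/ml, incubated at 35 °C for 16-24 h, growth judged by transmitted light versus an untreated inoculum reference tube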
Method: as §3, §4, §5, §6, §7, §8, §9, §10

[7] = Table 8, ^64Zne vs natural zinc
[8] = Table 7, ^64Zne vs natural zinc
[9] = concentration of ^64Zne, Tables 1-5

O=C([O-])CC(NCCNC(CC(=O)O)C(=O)O)C(=O)[O-].[64Zn+2] (stereo not shown) [^64Zne EDDS, ^64Zne salt of ethylenediamine-N,N′-disuccinic acid, chemical name 2-[2-[[(1)-1-carboxy-2-carboxylatoethyl]amino]ethylamino]butanedioate]
bactericidal activity (in words) [1]: satisfactory bactericidal activity | MBC ([1]; Table 6): 375 mcg ^64Zne/ml | MBC [1, 7]: 375 mcg zinc/ml | MBC ([2]; Table 6): 2.93* mcg ^64Zne/ml | MBC [2, 7]: 2.9296 mcg zinc/ml | MBC ([3]; Table 6): 0.73* mcg ^64Zne/ml | MBC [3, 7]: 0.7324 mcg zinc/ml | bacteriostatic activity (in words) [4]: best results | MIC [4, 8]: 5.86 zinc/ml | MIC [4, 9]: 1.465 µg/mL | MIC [5, 8]: 0.73 zinc/ml | visible growth ([5]; ^64Zne 0.00036 mcg/ml): + | visible growth ([5]; ^64Zne 0.00072 mcg/ml): + | visible growth ([5]; ^64Zne 0.0014 mcg/ml): + | visible growth ([5]; ^64Zne 0.0029 mcg/ml): + | visible growth ([5]; ^64Zne 0.0057 mcg/ml): + | visible growth ([5]; ^64Zne 0.011 mcg/ml): + | visible growth ([5]; ^64Zne 0.023 mcg/ml): + | visible growth ([5]; ^64Zne 0.046 mcg/ml): + | visible growth ([5]; ^64Zne 0.37 mcg/ml): − | visible growth ([5]; ^64Zne 0.73 mcg/ml): − | visible growth ([5]; ^64Zne 1.46 mcg/ml): − | visible growth ([5]; ^64Zne 2.93 mcg/ml): − | visible growth ([5]; ^64Zne 5.86 mcg/ml): − | visible growth ([5]; ^64Zne 11.72 mcg/ml): − | visible growth ([5]; ^64Zne 23.44 mcg/ml): − | visible growth ([5]; ^64Zne 46.88 mcg/ml): − | visible growth ([5]; ^64Zne 93.75 mcg/ml): − | visible growth ([5]; ^64Zne 187.5 mcg/ml): − | visible growth ([5]; ^64Zne 375 mcg/ml): − | visible growth ([5]; ^64Zne 750 mcg/ml): − | MIC [5, 9]: 0.366 µg/mL | MIC [6, 8]: 0.18 zinc/ml | visible growth ([6]; ^64Zne 0.00036 mcg/ml): + | visible growth ([6]; ^64Zne 0.00072 mcg/ml): + | visible growth ([6]; ^64Zne 0.0014 mcg/ml): + | visible growth ([6]; ^64Zne 0.0029 mcg/ml): + | visible growth ([6]; ^64Zne 0.0057 mcg/ml): + | visible growth ([6]; ^64Zne 0.011 mcg/ml): + | visible growth ([6]; ^64Zne 0.023 mcg/ml): − | visible growth ([6]; ^64Zne 0.046 mcg/ml): − | visible growth ([6]; ^64Zne 0.092 mcg/ml): − | visible growth ([6]; ^64Zne 0.18 mcg/ml): − | visible growth ([6]; ^64Zne 0.37 mcg/ml): − | visible growth ([6]; ^64Zne 0.73 mcg/ml): − | visible growth ([6]; ^64Zne 1.46 mcg/ml): − | visible growth ([6]; ^64Zne 2.93 mcg/ml): − | visible growth ([6]; ^64Zne 5.86 mcg/ml): − | visible growth ([6]; ^64Zne 11.72 mcg/ml): − | visible growth ([6]; ^64Zne 23.44 mcg/ml): − | visible growth ([6]; ^64Zne 46.88 mcg/ml): − | visible growth ([6]; ^64Zne 93.75 mcg/ml): − | visible growth ([6]; ^64Zne 187.5 mcg/ml): − | visible growth ([6]; ^64Zne 375 mcg/ml): − | visible growth ([6]; ^64Zne 750 mcg/ml): − | visible growth ([6]; ^64Zne 1500 mcg/ml): − | MIC [6, 9]: 0.0229 µg/mL

NC(CCC(=O)[O-])C(=O)[O-].[64Zn+2] (stereo not shown) [^64Zne glutamate]
MBC ([1]; Table 6): >750 mcg ^64Zne/ml | MBC ([2]; Table 6): 0.37* mcg ^64Zne/ml | MBC ([3]; Table 6): 0.046* mcg ^64Zne/ml | bacteriostatic activity (in words) [4]: best results | MIC [4, 9]: 0.183 µg/mL | visible growth ([5]; ^64Zne 0.00018 mcg/ml): + | visible growth ([5]; ^64Zne 0.00036 mcg/ml): + | visible growth ([5]; ^64Zne 0.00072 mcg/ml): + | visible growth ([5]; ^64Zne 0.0014 mcg/ml): + | visible growth ([5]; ^64Zne 0.0029 mcg/ml): + | visible growth ([5]; ^64Zne 0.0057 mcg/ml): + | visible growth ([5]; ^64Zne 0.011 mcg/ml): + | visible growth ([5]; ^64Zne 0.023 mcg/ml): + | visible growth ([5]; ^64Zne 0.046 mcg/ml): − | visible growth ([5]; ^64Zne 0.092 mcg/ml): − | visible growth ([5]; ^64Zne 0.18 mcg/ml): − | visible growth ([5]; ^64Zne 0.37 mcg/ml): − | visible growth ([5]; ^64Zne 0.73 mcg/ml): − | visible growth ([5]; ^64Zne 1.46 mcg/ml): − | visible growth ([5]; ^64Zne 2.93 mcg/ml): − | visible growth ([5]; ^64Zne 5.86 mcg/ml): − | visible growth ([5]; ^64Zne 11.72 mcg/ml): − | visible growth ([5]; ^64Zne 23.44 mcg/ml): − | visible growth ([5]; ^64Zne 46.88 mcg/ml): − | visible growth ([5]; ^64Zne 93.75 mcg/ml): − | visible growth ([5]; ^64Zne 187.5 mcg/ml): − | visible growth ([5]; ^64Zne 375 mcg/ml): − | MIC [5, 9]: 0.0458 µg/mL | visible growth ([6]; ^64Zne 0.00018 mcg/ml): + | visible growth ([6]; ^64Zne 0.00036 mcg/ml): + | visible growth ([6]; ^64Zne 0.00072 mcg/ml): + | visible growth ([6]; ^64Zne 0.0014 mcg/ml): + | visible growth ([6]; ^64Zne 0.0029 mcg/ml): + | visible growth ([6]; ^64Zne 0.0057 mcg/ml): − | visible growth ([6]; ^64Zne 0.011 mcg/ml): − | visible growth ([6]; ^64Zne 0.023 mcg/ml): − | visible growth ([6]; ^64Zne 0.046 mcg/ml): − | visible growth ([6]; ^64Zne 0.092 mcg/ml): − | visible growth ([6]; ^64Zne 0.18 mcg/ml): − | visible growth ([6]; ^64Zne 0.37 mcg/ml): − | visible growth ([6]; ^64Zne 0.73 mcg/ml): − | visible growth ([6]; ^64Zne 1.46 mcg/ml): − | visible growth ([6]; ^64Zne 2.93 mcg/ml): − | visible growth ([6]; ^64Zne 5.86 mcg/ml): − | visible growth ([6]; ^64Zne 11.72 mcg/ml): − | visible growth ([6]; ^64Zne 23.44 mcg/ml): − | visible growth ([6]; ^64Zne 46.88 mcg/ml): − | visible growth ([6]; ^64Zne 93.75 mcg/ml): − | visible growth ([6]; ^64Zne 187.5 mcg/ml): − | visible growth ([6]; ^64Zne 375 mcg/ml): − | visible growth ([6]; ^64Zne 750 mcg/ml): − | MIC [6, 9]: 0.0057 µg/mL

O=S(=O)([O-])[O-].[Zn+2] [Natural zinc - sulfate, natural zinc sulfate, reference compound]
MBC [1, 7]: >750 mcg zinc/ml | MBC [2, 7]: >750 mcg zinc/ml | MBC [3, 7]: >750 mcg zinc/ml | MIC [4, 8]: 750 zinc/ml | MIC [5, 8]: 93.75 zinc/ml | MIC [6, 8]: 187.5 zinc/ml
